Measurements as given in patent US8143254B2, “Methods for modulating ion channels” (Cornell Research Foundation, Inc., priority 2005, dated 2012).
Read-outs that look alike come from different tables or passages of the source.

Molecular target: T1, MiRP2-Kv2.1 (Rattus norvegicus, UniProt P15387)
T1 construct: expressed in transfected cells; host or cells: Xenopus oocytes (co-injected cRNA)
T1 sequence (P15387 1-857): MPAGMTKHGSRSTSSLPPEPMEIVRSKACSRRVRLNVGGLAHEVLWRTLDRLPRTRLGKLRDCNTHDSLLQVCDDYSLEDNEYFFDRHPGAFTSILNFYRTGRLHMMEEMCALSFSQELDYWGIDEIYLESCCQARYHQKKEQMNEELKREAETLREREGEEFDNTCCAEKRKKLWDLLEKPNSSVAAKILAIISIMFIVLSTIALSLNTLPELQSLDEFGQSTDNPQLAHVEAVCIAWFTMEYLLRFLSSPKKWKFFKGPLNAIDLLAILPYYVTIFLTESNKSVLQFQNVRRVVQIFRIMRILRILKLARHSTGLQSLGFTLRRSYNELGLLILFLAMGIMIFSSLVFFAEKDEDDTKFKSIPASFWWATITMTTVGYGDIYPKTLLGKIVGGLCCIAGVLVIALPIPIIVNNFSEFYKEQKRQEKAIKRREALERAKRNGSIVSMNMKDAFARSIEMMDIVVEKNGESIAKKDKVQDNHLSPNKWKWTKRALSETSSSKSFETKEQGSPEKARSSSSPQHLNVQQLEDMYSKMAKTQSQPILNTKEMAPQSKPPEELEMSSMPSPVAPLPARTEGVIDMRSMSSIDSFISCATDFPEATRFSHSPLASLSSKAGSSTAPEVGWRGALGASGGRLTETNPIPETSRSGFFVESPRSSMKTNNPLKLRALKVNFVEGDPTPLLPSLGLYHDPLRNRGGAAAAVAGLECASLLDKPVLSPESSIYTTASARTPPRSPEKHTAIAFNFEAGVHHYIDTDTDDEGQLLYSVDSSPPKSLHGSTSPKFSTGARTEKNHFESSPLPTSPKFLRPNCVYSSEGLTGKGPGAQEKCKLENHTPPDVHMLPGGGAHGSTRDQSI
T1 sequence (Q9Y6H6 1-103 partner): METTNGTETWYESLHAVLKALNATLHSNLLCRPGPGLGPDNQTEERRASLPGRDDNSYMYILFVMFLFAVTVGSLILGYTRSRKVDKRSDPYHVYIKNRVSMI
Assay: TEVC of Xenopus oocytes co-injected with Kv2.1 and MiRP2 cRNA
Format: cell-based
Conditions: for p (Hill slope) of logistic dose-response fit: MiRP2-Kv2.1; for effect of MiRP2 on sensitivity of Kv2.1 to the compound: MiRP2-Kv2.1 versus Kv2.1 alone
Experimental: Stage V-VI Xenopus oocytes are separated into small groups using forceps, defolliculated by agitation in Ca^2+-free Ringer solution containing collagenase for one hour, washed, then stored at 15° C. in full Ringers solution before injection. cRNA sufficient to give 1-10 μA of current at physiological voltages for each channel type is injected into Xenopus oocytes (selected by appearance for overall health and uniformity of color) using a Sutter manual injector (typically 0.1-5 ng cRNA in a volume of 25-50 nl). The oocytes are then stored for 1-3 days at 15° C. before TEVC recording. Beta subunit cRNA is co-injected as appropriate, typically 2 ng per oocyte.
Whole cell oocyte experiments are performed using a Warner OC-725C amplifier and pClamp9 software with oocytes bathed in a small-volume Warner oocyte bath and viewed with a Fisher dissection microscope. Bath solution for whole cell oocyte recordings, e.g., for potassium channel analysis, is generally (in mM): 96 NaCl, 4 KCl, 1 MgCl2, 0.3 CaCl2, 10 HEPES (Ph 7.4); whole-cell oocyte TEVC pipettes are filled with 3 M KCl. Oocyte patches are studies using an Axon Instruments small-volume bath, viewed with an Olympus IX50 inverted microscope, and recordings made using an Axon Multiclamp 700 A Amplifier and pCLAMP9 software (Axon Instruments). Extracellular solution, e.g., for potassium channel analysis, is generally (in mM): 135 NaCl, 5 KCl, 1.2 MgCl2, 5 HEPES, 2.5 CaCl2, 10 D-glucose (Ph 7.4). Intracellular solution, e.g., for potassium channel analysis, is generally (in mM): 10 NaCl, 117 KCl, 2 MgCl2, 11 HEPES, 11 EGTA, ICaCl2 (Ph 7.2). Patch pipettes are approximately 3-5 MΩ resistance when filled with recording solution.
Quantitative aspects of ion action on ion channels are compared using standard pulse protocols. Pulse times and voltages will vary according to which currents are being studied. I/V and G/V curves are typically fit to a standard Boltzmann function: 1/{1+exp[(V1/2−V)/Vs]}, where V1/2 is the half-maximal voltage of activation and Vs the slope factor, for quantification and comparison. Kinetics of drug effects upon wash-in are generally fit with single or multiple exponential functions and values for τ and amplitude reported. Drug inhibition constants are calculated after generating a dose response curve by fitting with a logistic dose-response function (see equation (i) below). Typically, 5-20 cells per group are recorded from for heterologous expression experiments. Values are to be stated as mean±SEM with statistical significance set at p<0.05 (unpaired students t-test, ANOVA or the Mann-Whitney Rank Sum Test as appropriate).
Injected oocytes, bathed in bath solution containing 4 mM KCl, unless otherwise stated, are impaled with current and voltage electrodes and clamped at −80 mV holding potential using a Warner OC-725C amplifier. For single-voltage dose-response assessment, currents are recorded for several pulses (each of 1-5 s at a frequency of 0.1 Hz depending upon channel type) in the absence of drug, until equilibrium current level is reached, and then during further pulses with bath application of various concentrations of drug, each until equilibrium current inhibition is observed, with a washout phase in between to eliminate the possibility of channel run-down and other non-drug effects. […] Drug concentrations are chosen to ensure inhibition values between 0 and 90-100% with at least 3 values within the linear portion of the curve so that the inhibition constant (Ki) can be calculated accurately by fitting with a logistic dose-response function (formula (i)) using the Origin 6.1 graph package.
We explored blocking effects on Kv2.1 with and without the MiRP2 ancillary subunit. Kv2.1 can co-assemble with MiRP2 in rat brain. The sensitivities of two diammonium compounds (JE188 and TA279) were analyzed by functional expression in Xenopus oocytes using two-electrode voltage clamp (TEVC), and bath application of the compounds at various concentrations. […]

With `CCCCCCCCCCCC[N+]12CCN(CC1)CC2` [JE188, 1-aza-4-azonia-4-dodecylbicyclo[2.2.2]octane] the “p (Hill slope) of logistic dose-response fit” value was 1.6±0.2, the IC50 (MiRP2-Kv2.1, external bath application, read-out: x0 of logistic dose-response fit of current inhibition (converted)) was 49.2 ± 8.2 µM and the “effect of MiRP2 on sensitivity of Kv2.1 to the compound” value was “two-fold decrease in sensitivity”.
`CCCCCCCCCCCCCCCC[N+]12CCN(CC1)CC2` [TA279, 1-aza-4-azonia-4-hexadecylbicyclo[2.2.2]octane] was tested, and the IC50 was 1.3 ± 0.4 µM, the “p (Hill slope) of logistic dose-response fit” value was 0.8±0.2 and the “effect of MiRP2 on sensitivity of Kv2.1 to the compound” value was “did not significantly alter inhibition”.
